Experimental data as given in patent US20250177532A1, “TEMPERATURE-SENSITIVE HYDROGEL FOR CANCER TREATMENT CAPABLE OF PHOTOTHERMAL THERAPY AND PREPARATION METHOD THEREFOR” (KOREA NATIONAL UNIVERSITY OF TRANSPORTATION …, priority 2022, published 2025).

System: 4T1 cells
Assay: Photothermal effect in vitro: cell viability by WST-1 assay with/without near-infrared irradiation
Settings: Triton X 0.1%
Method: To evaluate photothermal effect in in vitro, cells were seeded (1×10^4 cells/well) in 96 well-plate and incubated for 12 h. […] Then, the well was irradiated with near-infrared light for 5 min and incubated again for 24 hours. Then, cell viability was measured using WST-1 assay.

Substance: Triton X
- Cell viability (%) (control of Table 1 (GNS experiment, near-infrared irradiation)): 5.02%
- Cell viability (%) (control of Table 2, NIR irradiated): 10.58%
- Cell viability (%) (control of Table 2, no NIR): 10.23%
